Consider 65 molecules from PubChem BioAssay AID624359 (Broad Institute, 2012).

Assay [1] in a line: LMP1-induced NF-kB luciferase signal inhibition – cell-based, EBV LMP1, dry powder, dose response (AID 624359). To be noted: HEK293 LMP1 TES2 NF-kB luciferase reporter, 16 h.
Assay [2] has as its system HEK293 LMP1 TES2 NF-kB luciferase reporter, 16 h. The assay is described as above.

Records with an inconclusive call do not appear. The source made the active and inactive calls.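 The calls were made as follows: active = fitted curve reaches 35% inhibition at a concentration up to twice the top valid dose; inconclusive = no clear call, values can overlap the other calls; inactive = the rest, including signal moving the opposite way.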

As for `COc1ccc2nc(Nc3nc(C)c(CCC(C)C)c(=O)[nH]3)nc(C)c2c1`, the activity change, negative = inhibition in assay [1] (at 26 µM (top of the series)) was 42.5% (inactive).

Turning to `C/C(=N\NC(=S)N1CC2CCC(CC2)C1)c1ccncn1`, the activity change, negative = inhibition in assay [1] (at 26 µM (top of the series)) was -1.33% (inactive).

Regarding `Oc1cccc(C(Nc2nccs2)c2ccc3cccnc3c2O)c1` (stereo not given), the activity change, negative = inhibition in assay [1] (at 26 µM (top of the series)) was 23.7% (inactive).

As for `O=C(Nc1cc(C(F)(F)F)cc(C(F)(F)F)c1)Nc1cnn(-c2ccc([N+](=O)[O-])cc2)c1C(F)(F)F`, in assay [2], the AC35 was 40.7 µM.

As for `CC(C)=CCN(C(=O)C#Cc1ccccc1)[C@H](CO)c1ccccc1`, the AC35 in assay [2] was 3.79 µM.

`C[C@@H]1CN([C@@H](C)CO)C(=O)c2cc(NC(=O)Nc3ccc(C(F)(F)F)cc3)ccc2O[C@@H](C)CCCCO[C@H]1CN(C)Cc1ccc(C(F)(F)F)cc1`: in assay [1] (at 26 µM (top of the series)), the activity change, negative = inhibition was 24% (inactive).

Turning to `Cc1c(NC(=O)c2cccc(NC(=O)COc3ccccc3C#N)c2)c(=O)n(-c2ccccc2)n1C`, in assay [1] (at 26 µM (top of the series)), the activity change, negative = inhibition was 47.5% (inactive).

Consider `C/C=C/C/C=C/CCC(=O)[C@H]1O[C@H]1C(N)=O`, for which the AC35 in assay [2] is 13.2 µM.

Consider `CC1=C(C(=O)OCc2ccc3c(c2)OCO3)C(c2ccc(F)cc2)NC(=O)N1` (stereo not given), for which the activity change, negative = inhibition in assay [1] (at 26 µM (top of the series)) is -13.4% (inactive).

Consider `C[C@@H]1CN([C@@H](C)CO)C(=O)c2cccc(NC(=O)Nc3cccc4ccccc34)c2O[C@H]1CN(C)C(=O)Nc1ccc(C(F)(F)F)cc1`, for which the activity change, negative = inhibition in assay [1] (at 26 µM (top of the series)) was 26.9% (inactive).

As to `C=CCN1Cc2ccccc2[C@@H]2OC(c3ccc(OCCCO)cc3)=N[C@]2(CCC(=O)OC(C)(C)C)C1=O`, the activity change, negative = inhibition in assay [1] (at 26 µM (top of the series)) is 3.78% (inactive).

Take `C[C@@H]1CCCCO[C@@H](CN(C)Cc2ccccc2)[C@H](C)CN([C@H](C)CO)C(=O)c2cc(NC(=O)Nc3ccc4c(c3)OCO4)ccc2O1`: in assay [1] (at 26 µM (top of the series)), the activity change, negative = inhibition is -6.74% (inactive).

Turning to `C/C(=N\NC(=S)N1CCN(c2ccccn2)CC1)c1ccccn1`, the AC35 in assay [2] is 10.5 µM.

Take `CNC[C@@H]1Oc2ccc(NS(=O)(=O)c3cn(C)cn3)cc2CC(=O)N([C@H](C)CO)C[C@@H]1C`: in assay [1] (at 26 µM (top of the series)), the activity change, negative = inhibition was 7.33% (inactive).

For `COc1ccc(-c2csc3ncnc(NCCN4CCOCC4)c23)cc1`, the activity change, negative = inhibition in assay [1] (at 26 µM (top of the series)) was 9.04% (inactive).

As to `O=c1[nH]c(Nc2nc3ccccc3o2)nc2c1CCCC2`, the activity change, negative = inhibition in assay [1] (at 26 µM (top of the series)) is 2.84% (inactive).

Take `Cc1ccc(NC(=O)C2CCN(S(=O)(=O)c3ccc4c(c3)NC(=O)C(C)S4)CC2)cc1Cl` (stereo not given): the AC35 in assay [2] was 4.01 µM.

Turning to `Nc1ccn([C@@H]2O[C@H](CO)[C@@H](O)C2O)c(=O)n1` (stereo not given in full), in assay [2], the AC35 was 27.5 µM.

In the case of `C[C@@H]1CCCCO[C@H](CN(C)C(=O)CCC(F)(F)F)[C@H](C)CN([C@@H](C)CO)C(=O)c2cc(NC(=O)CCC(F)(F)F)ccc2O1`, the activity change, negative = inhibition in assay [1] (at 26 µM (top of the series)) was -12.3% (inactive).

In the case of `C/C(=N\NC(=S)N1CCC1)c1ccccn1`, the AC35 in assay [2] is 1.33 µM.

Regarding `S=C(NCc1ccccn1)N/N=C/c1ccccn1`, in assay [2], the AC35 is 5.41 µM.

As for `COc1ccc(C(=O)Nc2ccc3[nH]ccc3c2)cc1`, in assay [1] (at 26 µM (top of the series)), the activity change, negative = inhibition is 13.6% (inactive).

On to `C[C@H](CO)N1C[C@H](C)[C@H](CN(C)C(=O)Nc2ccc(C(F)(F)F)cc2)OCCCC[C@H](C)Oc2ccc(NC(=O)Nc3ccc(F)cc3)cc2C1=O`, for which the AC35 in assay [2] was 16.6 µM.

As for `COc1cccc(/C=N/Nc2ncnc3c2ncn3Cc2ccccc2)c1O`, in assay [2], the AC35 was 43.4 µM.

As to `COc1ccccc1NC(=S)N/N=C(\C)c1ccccn1`, the activity change, negative = inhibition in assay [1] (at 26 µM (top of the series)) is -20.4% (inactive).

In the case of `CC1CN(C(=O)CSc2nnc3c4ccccc4n(Cc4cccc(Cl)c4)c3n2)CCN1C(=O)c1ccccc1F` (stereo not given), the activity change, negative = inhibition in assay [1] (at 26 µM (top of the series)) is 42.2% (inactive).

With `O=C(CSc1nnc2c3ccccc3n(Cc3ccccc3)c2n1)NCc1ccco1`, the activity change, negative = inhibition in assay [1] (at 26 µM (top of the series)) was 12.9% (inactive).

On to `O=C(CCc1ccccc1)NC(c1cccs1)c1cc(Cl)c2cccnc2c1O` (stereo not given), for which the AC35 in assay [2] was 43.9 µM.

For the molecule `C[C@@H]1CCCCO[C@H](CN(C)C(=O)c2ccccc2)[C@H](C)CN([C@@H](C)CO)C(=O)c2cc(NC(=O)Nc3ccc(F)cc3)ccc2O1`, the activity change, negative = inhibition in assay [1] (at 26 µM (top of the series)) was -13.1% (inactive).

For the molecule `COc1ccc(-c2cc3nc4n(c(=O)c3s2)CCC4)cc1`, the activity change, negative = inhibition in assay [1] (at 26 µM (top of the series)) is 20.7% (inactive).

In the case of `O=C1/C(=C/c2ccncc2)SC(=S)N1Cc1ccccc1`, the AC35 in assay [2] is 29 µM.

With `CCCSc1nnc2c3ccccc3n(Cc3ccccc3)c2n1`, in assay [2], the AC35 was 3.4 µM.

With `S=C(N/N=C(\c1ccccc1)c1ccccn1)N(Cc1ccccn1)Cc1ccccn1`, the AC35 in assay [2] was 6 µM.

Consider `Cc1ccc(S(=O)(=O)NC(CC(C)C)C(=O)NCC(c2ccco2)N2CCCCC2)cc1` (stereo not given), for which the activity change, negative = inhibition in assay [1] (at 26 µM (top of the series)) is -1.92% (inactive).

In the case of `CCn1c2ccccc2c2cc(/C=N/n3cnnc3)ccc21`, the activity change, negative = inhibition in assay [1] (at 26 µM (top of the series)) was 30.3% (inactive).

On to `CCc1ccc(/C=C2\SC(=S)N(CCCC(=O)Nc3ccccn3)C2=O)cc1`, for which the activity change, negative = inhibition in assay [1] (at 26 µM (top of the series)) is 9.57% (inactive).

Regarding `C[C@@H]1CCCCO[C@H](CN(C)CC2CCCCC2)[C@H](C)CN([C@@H](C)CO)C(=O)c2cc(NC(=O)NC3CCCCC3)ccc2O1`, the activity change, negative = inhibition in assay [1] (at 26 µM (top of the series)) is -3.54% (inactive).

As to `C/C(=N\NC(=S)N1CCN(C2CCCCCC2)CC1)c1ccccn1`, the activity change, negative = inhibition in assay [1] (at 12 µM (top of the series)) was 33.5% (inactive).

With `CCC(Sc1nnc2c3ccccc3n(Cc3ccc(Br)cc3)c2n1)C(=O)NCCCN1CCOCC1` (stereo not given), the AC35 in assay [2] was 5.65 µM.

Consider `CC(=O)Nc1nc(C)c(-c2csc(Nc3ccc(O)cc3)n2)s1`, for which the activity change, negative = inhibition in assay [1] (at 26 µM (top of the series)) was 83.3% (inactive).

Turning to `CCc1ccc(/C=C/C(=O)C2C(=O)c3ccccc3C2=O)cc1`, the activity change, negative = inhibition in assay [1] (at 26 µM (top of the series)) was 28.8% (inactive).

`C[C@H](CO)N1C[C@H](C)[C@@H](CN(C)CC2CCCCC2)OCCCC[C@H](C)Oc2ccc(NC(=O)Nc3cccc4ccccc34)cc2C1=O`: in assay [1] (at 26 µM (top of the series)), the activity change, negative = inhibition is 23.2% (inactive).

Consider `Cc1ccc(S(=O)(=O)Nc2ccc3c(c2)C(=O)N([C@@H](C)CO)C[C@H](C)[C@@H](CN(C)C(=O)CCC(F)(F)F)OCCCC[C@H](C)O3)cc1`, for which the AC35 in assay [2] is 0.619 µM.

Regarding `COc1ccc2[nH]c(C(=O)N/N=C/c3ccc(O)cc3O)cc2c1`, the AC35 in assay [2] is 9.11 µM.

As to `Fc1ccc2c(c1)c1nnc(SCCN3CCOCC3)nc1n2Cc1ccccc1`, the AC35 in assay [2] was 10.1 µM.

As for `C/C(=N\NC(=S)Nc1cccc(C)c1)c1ccccn1`, the activity change, negative = inhibition in assay [1] (at 26 µM (top of the series)) is 74.3% (inactive).

Turning to `CCc1sc(C(=O)Nc2ncccc2O)cc1C`, the AC35 in assay [2] was 20.8 µM.

For `CSc1nc(-c2ccc(C)cc2)nc(C(Cl)Cl)n1`, the activity change, negative = inhibition in assay [1] (at 26 µM (top of the series)) was 12% (inactive).

With `C/C(=N\NC(=S)N1CCCCC1)c1cccc(C)n1`, the AC35 in assay [2] was 0.492 µM.

Regarding `C[C@@H]1CN([C@@H](C)CO)C(=O)c2cc(NC(=O)Nc3ccc4c(c3)OCO4)ccc2O[C@H]1CN(C)CC1CCCCC1`, in assay [2], the AC35 was 0.738 µM.

As to `C=C1C[C@]23C[C@@]1(O)CC[C@H]2[C@@]12C=C[C@H](O)[C@@](C)(C(=O)O1)[C@H]2[C@@H]3C(=O)O`, the activity change, negative = inhibition in assay [1] (at 15 µM (top of the series)) was -4.73% (inactive).

Regarding `O=c1[nH]c(=O)n([C@H]2C[C@H](O)[C@@H](CO)O2)cc1C(F)(F)F`, in assay [2], the AC35 was 8.74 µM.

In the case of `c1ccc(Cn2c3ccccc3c3nnc(SCCN4CCCCC4)nc32)cc1`, the AC35 in assay [2] is 11 µM.

On to `C/C(=N\NC(=S)N1CCCC1)c1ccccn1`, for which, in assay [2], the AC35 was 0.884 µM.

In the case of `C/C(=N\NC(=S)N1CC2CCC(CC2)C1)c1ccccn1`, the AC35 in assay [2] is 5.42 µM.

For `c1ccc(-c2cn3c4c(sc3n2)CCCC4)cc1`, in assay [1] (at 26 µM (top of the series)), the activity change, negative = inhibition was 6.83% (inactive).

On to `CSC(=S)N/N=C(\C)c1cccc(C)n1`, for which the activity change, negative = inhibition in assay [1] (at 26 µM (top of the series)) is 8.74% (inactive).

Take `C/C(=N\NC(=S)Nc1ccccc1Cl)c1ccccn1`: the activity change, negative = inhibition in assay [1] (at 26 µM (top of the series)) was 51.4% (inactive).

For the molecule `C[C@H](CO)N1C[C@H](C)[C@@H](CN(C)CC2CC2)OCCCC[C@H](C)Oc2ccc(NC(=O)Nc3cccc4ccccc34)cc2C1=O`, the AC35 in assay [2] is 0.541 µM.

As for `COc1ccccc1[C@]1(C)ON(c2ccccc2C(F)(F)F)C1=O`, the AC35 in assay [2] is 7.88 µM.

As for `C[C@@H]1CCCCO[C@H](CN(C)S(=O)(=O)c2ccccc2)[C@@H](C)CN([C@@H](C)CO)C(=O)c2cc(N(C)C)ccc2O1`, the activity change, negative = inhibition in assay [1] (at 26 µM (top of the series)) was -2.27% (inactive).

For `COCCCNC(=O)C(C)Sc1nnc2c3cc(C)ccc3n(Cc3ccccc3F)c2n1` (stereo not given), in assay [2], the AC35 is 25.8 µM.

Consider `C[C@H](CO)N1C[C@H](C)[C@@H](CN(C)Cc2ccc(-c3ccccc3)cc2)Oc2ccc(NC(=O)Nc3cccc4ccccc34)cc2CC1=O`, for which the AC35 in assay [2] was 4.13 µM.

Take `CC12CCC3C(CC=C4CC(O)CCC43CO)C1CCC2OC(=O)c1ccccc1` (stereo not given): the AC35 in assay [2] was 6.56 µM.

As to `CCN1CCN(C(c2cccnc2)c2cc(Cl)c3cccnc3c2O)CC1` (stereo not given), the AC35 in assay [2] is 7.4 µM.
